Some test systems named below: UO-31 renal; 786-0 renal; U251 CNS; SK-MEL-5 melanoma; HT29 colon; SF-295 CNS; SR leukemia; SNB-75 CNS; SW-620 colon; UACC-257 melanoma; SN12C renal; DU-145 prostate; NCI-H460 lung; OVCAR-5 ovarian; MDA-N; SK-MEL-2 melanoma; T-47D breast.
Assay in all cases: inhibition of tumour cell growth, NCI panel, 48 h

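Results reflect a 48-hour exposure of cells in 96-well plates to compound at five concentrations. TGI denotes the concentration required for complete inhibition of growth.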 A value given as a limit tells only on which side of the number the result lay.

Turning to `CC(=O)OCC1OC(n2c3c(c(-c4ccc(C)cc4)c(C#N)c2=S)C(=O)CC(C)(C)C3)C(OC(C)=O)C(OC(C)=O)C1OC(C)=O` (centres undefined), the TGI is over 100 µM in the test with UO-31 renal; over 100 µM in the test on 786-0 renal; over 100 µM with U251 CNS; over 100 µM with SK-MEL-5 melanoma; over 100 µM with HT29 colon; 89 µM with SF-295 CNS. Further, the TGI was over 100 µM in the test on SR leukemia; 82.5 µM with SNB-75 CNS; over 100 µM in the test on SW-620 colon; 38.3 µM in the test with UACC-257 melanoma; 42.7 µM in the test with SN12C renal; over 100 µM in the test on DU-145 prostate. Besides, the TGI with NCI-H460 lung was over 100 µM; in the test with OVCAR-5 ovarian it was over 100 µM; with MDA-N, 41.5 µM.

`O=C1c2ccccc2C(=O)N1/N=C1/SC(=Nc2ccccc2)C(=Nc2ccccc2)N1c1ccccc1`: the TGI in the test on UO-31 renal was over 100 µM; with 786-0 renal, over 41.7 µM; in the test with U251 CNS it was over 100 µM; in the test with SK-MEL-5 melanoma, over 90.3 µM; in the test on HT29 colon, over 100 µM; in the test on SK-MEL-2 melanoma, over 100 µM. For the same compound, the TGI with SF-295 CNS was over 100 µM; in the test with SR leukemia, over 31.6 µM; in the test with SNB-75 CNS it was over 54.1 µM; in the test with SW-620 colon, over 100 µM; in the test with UACC-257 melanoma, over 100 µM; in the test with SN12C renal it was over 100 µM. In addition, the TGI in the test on DU-145 prostate, with T-47D breast, with NCI-H460 lung and in the test on OVCAR-5 ovarian was over 100 µM in each case.

For the compound `C/C=C1/CC(C(=O)OC)N(C(=O)OCc2ccccc2)C1=S` (centres undefined), the TGI in the test on UO-31 renal, with 786-0 renal, in the test on U251 CNS, in the test with SK-MEL-5 melanoma, with HT29 colon and in the test with SK-MEL-2 melanoma was over 100 µM in each case. The TGI with SF-295 CNS is over 100 µM; in the test on SNB-75 CNS it was over 100 µM; with SW-620 colon, over 100 µM; in the test on UACC-257 melanoma it was over 100 µM; with DU-145 prostate it was over 100 µM; in the test with NCI-H460 lung it was 38.8 µM. For the same compound, the TGI with OVCAR-5 ovarian and with MDA-N was over 100 µM in each case.

In the case of `O=C(CNc1ccccc1[N+](=O)[O-])Nn1cnc2ccc(S(=O)(=O)Nc3ccccc3[N+](=O)[O-])cc2c1=O`, the TGI in the test with UO-31 renal, with 786-0 renal, with U251 CNS, in the test with HT29 colon, in the test on SK-MEL-2 melanoma and in the test on SF-295 CNS was over 100 µM in each case. Moreover, the TGI in the test on SR leukemia, in the test with SNB-75 CNS, in the test with SW-620 colon, in the test on UACC-257 melanoma, in the test on SN12C renal and in the test on DU-145 prostate was over 100 µM throughout. In addition, the TGI in the test with NCI-H460 lung, in the test with OVCAR-5 ovarian and in the test with MDA-N was over 100 µM throughout.

For `COC(=O)C(=O)C(C(=O)C(=O)Nc1ccc(Cl)c(Cl)c1)c1nc2ccc(C(=O)c3ccccc3)cc2[nH]c1=O` (centres undefined), the TGI in the test on UO-31 renal, with 786-0 renal, in the test on U251 CNS, with SK-MEL-5 melanoma, with HT29 colon and with SK-MEL-2 melanoma was over 100 µM in each case. The TGI in the test on SF-295 CNS, with SNB-75 CNS, in the test with SW-620 colon, in the test on UACC-257 melanoma, in the test on SN12C renal and in the test on T-47D breast was over 100 µM each time. Besides, the TGI in the test on OVCAR-5 ovarian and in the test on MDA-N was over 100 µM in each case.

Turning to `O=C(c1ccc2ccccc2c1)C1(I)S(=O)(=O)OCCOS1(=O)=O`, the TGI with UO-31 renal, in the test on 786-0 renal, in the test with U251 CNS, with SK-MEL-5 melanoma, with HT29 colon and in the test on SK-MEL-2 melanoma was over 100 µM in each case. The TGI in the test with SF-295 CNS is 0.0298 µM; with SR leukemia it was over 100 µM; in the test with SN12C renal, over 100 µM; in the test on DU-145 prostate, over 100 µM; with NCI-H460 lung it was over 100 µM; in the test on OVCAR-5 ovarian it was over 100 µM. The same compound displayed a TGI in the test on MDA-N of over 100 µM.

Regarding `COC(=O)c1c(O)c(C#N)c2[nH]c3ccccc3n2c1=O`, the TGI with UO-31 renal, with 786-0 renal, with U251 CNS, with SK-MEL-5 melanoma, in the test with HT29 colon and in the test with SK-MEL-2 melanoma was over 100 µM each time. In addition, the TGI in the test with SF-295 CNS, with SR leukemia, in the test with SNB-75 CNS, in the test with SW-620 colon, in the test with UACC-257 melanoma and in the test on SN12C renal was over 100 µM in each case. The TGI in the test on DU-145 prostate, in the test on NCI-H460 lung, with OVCAR-5 ovarian and in the test on MDA-N was over 100 µM throughout.

For the compound `CC(C)[Si](OC12CCC(CC1O)CC2CO)(C(C)C)C(C)C` (centres undefined), the TGI in the test with UO-31 renal was 26.8 µM; in the test on 786-0 renal it was 22.3 µM; in the test on U251 CNS, 28 µM; in the test on SK-MEL-5 melanoma, 47.6 µM; in the test with HT29 colon, 28.9 µM; in the test with SK-MEL-2 melanoma it was 29.3 µM. In addition, the TGI in the test on SF-295 CNS is 24.6 µM; with SR leukemia it was 38.5 µM; in the test with SNB-75 CNS, 26.8 µM; in the test with SW-620 colon it was 52.4 µM; with UACC-257 melanoma, 26.6 µM; in the test on SN12C renal, 60.6 µM. Besides, the TGI was 35.5 µM in the test on DU-145 prostate, 25.7 µM in the test with T-47D breast, 25.2 µM in the test on NCI-H460 lung and 31.2 µM with OVCAR-5 ovarian.

Consider `Brc1ccc(C2=NCSC(c3ccc(Br)cc3)=N2)cc1`, for which the TGI in the test with UO-31 renal was 67.2 µM; in the test on 786-0 renal, 40.4 µM; in the test with U251 CNS it was 53.3 µM; in the test on SK-MEL-5 melanoma it was 64.5 µM; in the test on HT29 colon, 86.3 µM; in the test with SK-MEL-2 melanoma it was 32.5 µM. For the same compound, the TGI with SF-295 CNS is over 100 µM; in the test with SR leukemia it was 47.4 µM; in the test on SNB-75 CNS, 63.1 µM; with SW-620 colon, over 100 µM; in the test with UACC-257 melanoma it was 71 µM; with SN12C renal, over 100 µM. Moreover, the values for the TGI with NCI-H460 lung, with OVCAR-5 ovarian and with MDA-N were 53.8 µM, over 100 µM and 54.7 µM, respectively.
